{"source": "patent US20030232851A1", "about": "“Viral treatment” (The Procter & Gamble Company, priority 1999, published 2003)", "key": {"[1]": {"assay": "Kaposi's Sarcoma test: toxicity values", "format": "cell-based", "conditions": "human, TPA-induced BCBL-1 cells (HHV8 cell line); read-out: TC50 (the source's name)", "procedure": "The DNA copy number and the toxicity value were measured and compared with Cidofovir."}, "[2]": {"target": "T1, HIV-1 protease (Human immunodeficiency virus type 1 group M subtype B, UniProt P04585)", "T1 construct": "precludes use of the fluorometric HIV-1 protease assay; purchased Bachem", "assay": "Protease inhibition assay (fluorometric)", "format": "biochemical", "conditions": "for Protease Inhibition, sample reading: sample 1, sample 2", "procedure": "Protease inhibition is evaluated using a fluorometric method. Enzyme (Bachem) is diluted to 116 μgm/ml in 50 mM NaOAC, 5 mM DTT, 2 mM EDTA, 10% glycerol (pH 5.0) and stored as 10 μl samples at −20° C., HIV protease substrates I (Molecular Probes) is diluted to a working concentration of 0.32 nmoles/μl. Enzyme (20 μl) and drug (20 μl) are added to each well of a microtiter plate as appropriate. Positive and negative controls are evaluated in parallel. Fluorescence is quantitated on Labsystems Fluroskan II using 355 nm/460 nm at 37° C. at time zero and at 30 minute intervals for 2 hours. In instances where autofluorescence precludes use of the fluorometric HIV-1 protease assay or confirmation of a result is required, an HPLC based protease assay can be employed."}, "[3]": {"test_system": "HEPG22.2.15", "assay": "Hepatitis B test: toxicity values", "format": "cell-based"}, "[4]": {"target": "HIV-1 integrase (Human immunodeficiency virus type 1 group M subtype B, UniProt P04585)", "assay": "HIV-1 integrase inhibition assay", "format": "biochemical", "set-up": "HIV-1 Integrase Inhibition, sample reading / HIV-1 Integrase Inhibition, mean: unit not given here", "conditions": "for HIV-1 Integrase Inhibition, sample reading: sample 1, sample 2", "text": "A biochemical integrase assay described by Craigie et at (HIV, vol. 2: A practical Approach) Biochemistry, Molecular Biology and Drug Discovery, Ed. J. Kam 1995) to screen agents for their ability to inhibit HIV-1 integrase. In this system, a kinased oligonucleotide serves as the target of 3′ processing and the subsequent strand transfer reaction. The 3′ processing reaction involves the removal of 2 nucleotides from the 3′ ends of the substrate and this is followed by the strand transfer reaction in which the 3′ ends are joined to the exposed 5′ ends. The 20 μl reaction mixture contains 25 mM MOPS (pH 7.2), […] BSA, 10 mM β-mercaptoethanol, 10% glycerol, 7.5 mM MnCl2, 25 nM (7 ng) substrate (Oligo's Etc., Wilsonville, Oreg.) and 200 nM (128 ng) integrase (NIAID AIDS Research and Reference Reagent Program, Bethesda, Md.). The reaction proceeds at 37° C. for 1-2 hours and is terminated by the addition of 20 μl of sequencing stop solution (JSB Amersham, Arlington Heights, Ill.). The reaction products are visualized by autoradiography following electrophoresis in 15% polyacrylamide 6M Urea gel. The substrate migrates as a 30 mer, the product of 3′ processing migrates as an N-2 band and the strand transfer products migrate more slowly at various sizes larger than the substrate."}}, "note": "“And” between values parts separate entries of the source, which are not always exact repeats. Equal values may be shown once."}
{"compound": "c1csc(-c2nc3cccnc3[nH]2)c1", "note": "[2-(2-thienyl)-imidazolo [4,5-b]pyridine]", "values": [{"measurement": "CC50", "setting": "[1]", "value": 32.6, "unit": "µM"}, {"measurement": "Protease Inhibition, mean", "setting": "[2]; 1 nM", "value": 24.7}, {"measurement": "Protease Inhibition, sample reading", "setting": "[2]; 1 nM", "value": "27.1 and 22.4"}, {"measurement": "Protease Inhibition, mean", "setting": "[2]; 10 nM", "value": 36.7}, {"measurement": "Protease Inhibition, sample reading", "setting": "[2]; 10 nM", "value": "33.2 and 40.2"}, {"measurement": "Protease Inhibition, mean", "setting": "[2]; 100 nM", "value": 76.1}, {"measurement": "Protease Inhibition, sample reading", "setting": "[2]; 100 nM", "value": "75.4 and 76.8"}, {"measurement": "Protease Inhibition, mean", "setting": "[2]; 1000 nM", "value": 213.8}, {"measurement": "Protease Inhibition, sample reading", "setting": "[2]; 1000 nM", "value": "219.4 and 208.2"}, {"measurement": "Toxicity Values, % cell control", "setting": "[3]; 0.64 μg/ml", "value": 108.5, "unit": "%"}, {"measurement": "Toxicity Values, mean", "setting": "[3]; 0.64 μg/ml", "value": 1.359}, {"measurement": "Toxicity Values, samples 1-3", "setting": "[3]; 0.64 μg/ml", "value": "1.389 and 1.334 and 1.355"}, {"measurement": "Toxicity Values, % cell control", "setting": "[3]; 2 μg/ml", "value": 101.1, "unit": "%"}, {"measurement": "Toxicity Values, mean", "setting": "[3]; 2 μg/ml", "value": 1.266}, {"measurement": "Toxicity Values, samples 1-3", "setting": "[3]; 2 μg/ml", "value": "1.121 and 1.246 and 1.432"}, {"measurement": "Toxicity Values, % cell control", "setting": "[3]; 6.4 μg/ml", "value": 101.5, "unit": "%"}, {"measurement": "Toxicity Values, mean", "setting": "[3]; 6.4 μg/ml", "value": 1.271}, {"measurement": "Toxicity Values, samples 1-3", "setting": "[3]; 6.4 μg/ml", "value": "1.249 and 1.157 and 1.407"}, {"measurement": "Toxicity Values, % cell control", "setting": "[3]; 20 μg/ml", "value": 30.7, "unit": "%"}, {"measurement": "Toxicity Values, mean", "setting": "[3]; 20 μg/ml", "value": 0.385}, {"measurement": "Toxicity Values, samples 1-3", "setting": "[3]; 20 μg/ml", "value": "0.404 and 0.389 and 0.361"}, {"measurement": "Toxicity Values, % cell control", "setting": "[3]; 64 μg/ml", "value": 1.4, "unit": "%"}, {"measurement": "Toxicity Values, mean", "setting": "[3]; 64 μg/ml", "value": 0.017}, {"measurement": "Toxicity Values, samples 1-3", "setting": "[3]; 64 μg/ml", "value": "0.017 and 0.018"}, {"measurement": "Toxicity Values, % cell control", "setting": "[3]; 200 μg/ml", "value": 1.4, "unit": "%"}, {"measurement": "Toxicity Values, mean", "setting": "[3]; 200 μg/ml", "value": 0.017}, {"measurement": "Toxicity Values, samples 1-3", "setting": "[3]; 200 μg/ml", "value": "0.018 and 0.017"}, {"measurement": "TC50", "setting": "[3]; first experiment", "value": 16.3, "unit": "µg/mL"}, {"measurement": "TC50", "setting": "[3]; replicate experiment", "value": 16.8, "unit": "µg/mL"}, {"measurement": "EC50", "setting": "[4]", "value": "> 497", "unit": "µM"}, {"measurement": "HIV-1 Integrase Inhibition, mean", "setting": "[4]; 0.1 μg/ml", "value": 10577}, {"measurement": "HIV-1 Integrase Inhibition, sample reading", "setting": "[4]; 0.1 μg/ml", "value": "11155.2 and 9998.8"}, {"measurement": "HIV-1 Integrase Inhibition, mean", "setting": "[4]; 1 μg/ml", "value": 10104}, {"measurement": "HIV-1 Integrase Inhibition, sample reading", "setting": "[4]; 1 μg/ml", "value": "10640.4 and 9568.4"}, {"measurement": "HIV-1 Integrase Inhibition, mean", "setting": "[4]; 10 μg/ml", "value": 10580}, {"measurement": "HIV-1 Integrase Inhibition, sample reading", "setting": "[4]; 10 μg/ml", "value": "10814.1 and 10345.1"}, {"measurement": "HIV-1 Integrase Inhibition, mean", "setting": "[4]; 100 μg/ml", "value": 7214}, {"measurement": "HIV-1 Integrase Inhibition, sample reading", "setting": "[4]; 100 μg/ml", "value": "7639.4 and 6788.6"}]}
